Patent US8563542B2 (Cyclacel Limited, priority 2007, dated 2013)
pIC50: −log10 of the molar value. Structures can show the parent of a compound that is named as a salt.

Target: T1, AA (Homo sapiens, UniProt O14965)
T1 sequence (O14965 1-403): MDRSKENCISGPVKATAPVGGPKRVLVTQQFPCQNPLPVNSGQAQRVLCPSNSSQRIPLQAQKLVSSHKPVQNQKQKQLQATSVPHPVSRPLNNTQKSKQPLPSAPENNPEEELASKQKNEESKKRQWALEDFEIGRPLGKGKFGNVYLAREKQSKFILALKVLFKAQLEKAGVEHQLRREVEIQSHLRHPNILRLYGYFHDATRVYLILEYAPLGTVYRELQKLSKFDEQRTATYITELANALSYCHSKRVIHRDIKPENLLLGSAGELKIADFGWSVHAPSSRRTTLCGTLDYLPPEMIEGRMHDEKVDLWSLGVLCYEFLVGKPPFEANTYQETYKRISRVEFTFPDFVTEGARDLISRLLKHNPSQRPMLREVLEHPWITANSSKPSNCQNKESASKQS
Assay: AA IC50 (Table 1; no method given)
Assay type: biochemical
Details: Table 1; read-out: AA IC50

Row | pIC50 | SMILES
1 | 5.00 to 6.00 | COc1cc(C(=O)O)ccc1Nc1ncc2c(n1)N(C1CCCCC1)CCC(=O)N2 [compound 9, 4-(9-Cyclohexyl-6-oxo-6,7,8,9-tetrahydro-5H-pyrimido[4,5-b][1,4]diazepin-2-ylamino)-3-methoxy-benzoic acid]

Target: PLK1 (Homo sapiens, UniProt P53350)
Assay: PLK1 protein kinase assay (CDC25C phosphorylation, [γ-32P]-ATP)
Assay type: biochemical
Details: Table 2, PLK1 IC50; class symbols; read-out: PLK1 IC50

Chain of PLK1 (P53350 whole entry): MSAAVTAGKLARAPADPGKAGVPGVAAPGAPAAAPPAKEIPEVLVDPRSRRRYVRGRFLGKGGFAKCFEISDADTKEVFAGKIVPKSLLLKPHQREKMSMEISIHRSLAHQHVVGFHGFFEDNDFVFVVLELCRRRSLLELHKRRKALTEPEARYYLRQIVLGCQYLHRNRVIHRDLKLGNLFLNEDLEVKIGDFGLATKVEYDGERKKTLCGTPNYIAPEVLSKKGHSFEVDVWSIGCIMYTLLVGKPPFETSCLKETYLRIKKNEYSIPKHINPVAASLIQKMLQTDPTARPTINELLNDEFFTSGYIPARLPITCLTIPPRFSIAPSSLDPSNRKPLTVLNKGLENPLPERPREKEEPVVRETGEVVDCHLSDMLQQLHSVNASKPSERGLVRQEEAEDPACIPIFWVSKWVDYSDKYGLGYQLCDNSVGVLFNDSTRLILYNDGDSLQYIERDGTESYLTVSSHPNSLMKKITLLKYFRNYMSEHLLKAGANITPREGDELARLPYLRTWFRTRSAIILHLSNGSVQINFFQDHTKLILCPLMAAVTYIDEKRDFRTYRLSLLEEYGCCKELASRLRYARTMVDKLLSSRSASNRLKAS

Row | SMILES | pIC50
2 | Cc1cc(C(=O)O)ccc1Nc1ncc2c(n1)N(C1CCCC1)CC1(CC1)C(=O)N2C [compound 280, 4-(9-Cyclopentyl-5-methyl-6-oxo-6,7,8,9-tetrahydro-5H-pyrimido[4,5-b][1,4]diazepin-3,1′-cyclopropane-2-ylamino)-3-methyl-benzoic acid] | > 5.00
3 | CN1C(=O)C2(CC2)CN(C2CCCC2)c2nc(Nc3ccc(C(=O)O)cc3F)ncc21 [compound 283, 4-(9-Cyclopentyl-5-methyl-6-oxo-6,7,8,9-tetrahydro-5H-spiro[pyrimido[4,5-b][1,4]diazepin-3,1′-cyclopropane]-2-ylamino)-3-fluorobenzoic acid] | > 7.00
4 | CN1CCC(NC(=O)c2ccc(Nc3ncc4c(n3)N(C3CCCC3)CC3(CC3)C(=O)N4C)c(OC(F)(F)F)c2)CC1 [compound 284, 4-(9-Cyclopentyl-5-methyl-6-oxo-6,7,8,9-tetrahydro-5H-spiro[pyrimido[4,5-b][1,4]diazepin-3,1′-cyclopropane]-2-ylamino)-3-trifluoromethoxy-N-(1-methyl-piperidin-4-yl)-benzamide] | > 7.00
5 | Cc1cc(C(=O)NC2CCN(C)CC2)ccc1Nc1ncc2c(n1)N(C1CCCC1)CC1(CC1)C(=O)N2C [compound 301] | > 6.00
6 | COc1cc(C(=O)NC2CCN(C)CC2)ccc1Nc1ncc2c(n1)N(CC(C)C)CCC(=O)N2C [compound 302, 4-(9-Isobutyl-5-methyl-6-oxo-6,7,8,9-tetrahydro-5H-pyrimido[4,5-b][1,4]diazepin-2-ylamino)-3-methoxy-N-(1-methyl-piperidin-4-yl)-benzamide] | > 6.00
7 | COc1cc(C(=O)NC2CCCN(C)C2)ccc1Nc1ncc2c(n1)N(CC(C)C)CCC(=O)N2C (centres unmarked) [compound 303, 4-(9-Isobutyl-5-methyl-6-oxo-6,7,8,9-tetrahydro-5H-pyrimido[4,5-b][1,4]diazepin-2-ylamino)-3-methoxy-N-(1-methyl-piperidin-3-yl)-benzamide] | > 6.00
8 | COc1cc(C(=O)NC2CCN(Cc3ccccc3)CC2)ccc1Nc1ncc2c(n1)N(CC(C)C)CCC(=O)N2C [compound 304, N-(1-Benzyl-piperidin-4-yl)-4-(9-isobutyl-5-methyl-6-oxo-6,7,8,9-tetrahydro-5H-pyrimido[4,5-b][1,4]diazepin-2-ylamino)-3-methoxy-benzamide] | > 6.00
9 | COc1cc(C(=O)NC2CN3CCC2CC3)ccc1Nc1ncc2c(n1)N(CC(C)C)CCC(=O)N2C (centres unmarked) [compound 305, N-(1-Aza-bicyclo[2.2.2]oct-3-yl)-4-(9-isobutyl-5-methyl-6-oxo-6,7,8,9-tetrahydro-5H-pyrimido[4,5-b][1,4]diazepin-2-ylamino)-3-methoxy-benzamide] | > 6.00
10 | COc1cc(C(=O)NC2CC(C)(C)N(C)C(C)(C)C2)ccc1Nc1ncc2c(n1)N(CC(C)C)CCC(=O)N2C [compound 306, 4-(9-Isobutyl-5-methyl-6-oxo-6,7,8,9-tetrahydro-5H-pyrimido[4,5-b][1,4]diazepin-2-ylamino)-3-methoxy-N-(1,2,2,6,6-pentamethyl-piperidin-4-yl)-benzamide] | > 6.00
11 | CCN(CC)CCNC(=O)c1ccc(Nc2ncc3c(n2)N(CC(C)C)CCC(=O)N3C)c(OC)c1 [compound 307, N-(2-Diethylamino-ethyl)-4-(9-isobutyl-5-methyl-6-oxo-6,7,8,9-tetrahydro-5H-pyrimido[4,5-b][1,4]diazepin-2-ylamino)-3-methoxy-benzamide] | > 6.00
12 | COc1cc(C(=O)NC2CCN(C)CC2)ccc1Nc1ncc2c(n1)N(c1ccccc1C)CCC(=O)N2C [compound 308, 3-Methoxy-4-(5-methyl-6-oxo-9-o-tolyl-6,7,8,9-tetrahydro-5H-pyrimido[4,5-b][1,4]diazepin-2-ylamino)-N-(1-methyl-piperidin-4-yl)-benzamide] | > 5.00
13 | COc1cc(C(=O)NC2CCCN(C)C2)ccc1Nc1ncc2c(n1)N(c1ccccc1C)CCC(=O)N2C (centres unmarked) [compound 309, 3-Methoxy-4-(5-methyl-6-oxo-9-o-tolyl-6,7,8,9-tetrahydro-5H-pyrimido[4,5-b][1,4]diazepin-2-ylamino)-N-(1-methyl-piperidin-3-yl)-benzamide] | > 5.00
14 | COc1cc(C(=O)NC2CN3CCC2CC3)ccc1Nc1ncc2c(n1)N(c1ccccc1C)CCC(=O)N2C (centres unmarked) [compound 311, N-(1-Aza-bicyclo[2.2.2]oct-3-yl)-3-methoxy-4-(5-methyl-6-oxo-9-o-tolyl-6,7,8,9-tetrahydro-5H-pyrimido[4,5-b][1,4]diazepin-2-ylamino)-benzamide] | > 6.00
15 | COc1ccc(N2CCC(=O)N(C)c3cnc(Nc4ccc(C(=O)NC5CN6CCC5CC6)cc4OC)nc32)cc1 (centres unmarked) [compound 317, N-(1-Aza-bicyclo[2.2.2]oct-3-yl)-3-methoxy-4-[9-(4-methoxy-phenyl)-5-methyl-6-oxo-6,7,8,9-tetrahydro-5H-pyrimido[4,5-b][1,4]diazepin-2-ylamino]-benzamide] | > 6.00

Now from value to compound:

Row | pIC50 | SMILES
16 | > 5.00 | COc1cc(C(=O)NC2CCN(Cc3ccccc3)CC2)ccc1Nc1ncc2c(n1)N(c1ccccc1C)CCC(=O)N2C [compound 310, N-(1-Benzyl-piperidin-4-yl)-3-methoxy-4-(5-methyl-6-oxo-9-o-tolyl-6,7,8,9-tetrahydro-5H-pyrimido[4,5-b][1,4]diazepin-2-ylamino)-benzamide]
17 | > 5.00 | COc1cc(C(=O)NC2CC(C)(C)N(C)C(C)(C)C2)ccc1Nc1ncc2c(n1)N(c1ccccc1C)CCC(=O)N2C [compound 312, 3-Methoxy-4-(5-methyl-6-oxo-9-o-tolyl-6,7,8,9-tetrahydro-5H-pyrimido[4,5-b][1,4]diazepin-2-ylamino)-N-(1,2,2,6,6-pentamethyl-piperidin-4-yl)-benzamide]
18 | > 5.00 | CCN(CC)CCNC(=O)c1ccc(Nc2ncc3c(n2)N(c2ccccc2C)CCC(=O)N3C)c(OC)c1 [compound 313, N-(2-Diethylamino-ethyl)-3-methoxy-4-(5-methyl-6-oxo-9-o-tolyl-6,7,8,9-tetrahydro-5H-pyrimido[4,5-b][1,4]diazepin-2-ylamino)-benzamide]
19 | > 6.00 | COc1ccc(N2CCC(=O)N(C)c3cnc(Nc4ccc(C(=O)NC5CCN(C)CC5)cc4OC)nc32)cc1 [compound 314]
20 | > 6.00 | COc1ccc(N2CCC(=O)N(C)c3cnc(Nc4ccc(C(=O)NC5CCCN(C)C5)cc4OC)nc32)cc1 (centres unmarked) [compound 315]
21 | > 6.00 | COc1ccc(N2CCC(=O)N(C)c3cnc(Nc4ccc(C(=O)NC5CCN(Cc6ccccc6)CC5)cc4OC)nc32)cc1 [compound 316, N-(1-Benzyl-piperidin-4-yl)-3-methoxy-4-[9-(4-methoxy-phenyl)-5-methyl-6-oxo-6,7,8,9-tetrahydro-5H-pyrimido[4,5-b][1,4]diazepin-2-ylamino]-benzamide]
22 | > 6.00 | COc1ccc(N2CCC(=O)N(C)c3cnc(Nc4ccc(C(=O)NC5CC(C)(C)N(C)C(C)(C)C5)cc4OC)nc32)cc1 [compound 318]
23 | > 5.00 | CCN(CC)CCNC(=O)c1ccc(Nc2ncc3c(n2)N(c2ccc(OC)cc2)CCC(=O)N3C)c(OC)c1 [compound 319, N-(2-Diethylamino-ethyl)-3-methoxy-4-[9-(4-methoxy-phenyl)-5-methyl-6-oxo-6,7,8,9-tetrahydro-5H-pyrimido[4,5-b][1,4]diazepin-2-ylamino]-benzamide]
24 | > 6.00 | COc1cc(C(=O)NCC(=O)N2CCN(C(C)C)CC2)ccc1Nc1ncc2c(n1)N(C1CCCC1)CC1(CC1)C(=O)N2C [compound 321]
25 | > 7.00 | COc1cc(C(=O)NC2CCN(Cc3ccccc3)C2)ccc1Nc1ncc2c(n1)N(C1CCCC1)CC1(CC1)C(=O)N2C (centres unmarked) [compound 322, N-(Benzyl-pyrrolidin-3-yl)-4-(9-cyclopentyl-5-methyl-6-oxo-6,7,8,9-tetrahydro-5H-spiro[pyrimido[4,5-b][1,4]diazepin-3,1′-cyclopropane]-2-ylamino)-3-methoxy-N-benzamide]
26 | > 7.00 | CN1CCC(NC(=O)c2ccc(Nc3ncc4c(n3)N(C3CCCC3)CC3(CC3)C(=O)N4C)c(F)c2)CC1 [compound 323, 4-(9-Cyclopentyl-5-methyl-6-oxo-6,7,8,9-tetrahydro-5H-spiro[pyrimido[4,5-b][1,4]diazepin-3,1′-cyclopropane]-2-ylamino)-3-fluoro-N-(1-methyl-piperidin-4-yl)-benzamide]
27 | > 7.00 | COc1cc(C(=O)NC2CCN(C)CC2)ccc1Nc1ncc2c(n1)N(C1CCCC1)CC1(CC1)C(=O)N2C [compound 341, 4-(9-Cyclopentyl-5-methyl-6-oxo-6,7,8,9-tetrahydro-5H-spiro[pyrimido[4,5-b][1,4]diazepin-3,1′-cyclopropane]-2-ylamino)-3-methoxy-N-(1-methyl-piperidin-4-yl)-benzamide mesylate]
28 | > 6.00 | COc1cc(C(=O)NC2CCN(CC(=O)O)CC2)ccc1Nc1ncc2c(n1)N(C1CCCC1)CCC(=O)N2C [compound 343]
29 | > 7.00 | COc1cc(C(=O)NC2CCN(C(C)C)CC2)ccc1Nc1ncc2c(n1)N(C1CCCC1)CCC(=O)N2C [compound 344, 4-(9-Cyclopentyl-5-methyl-6-oxo-6,7,8,9-tetrahydro-5H-pyrimido[4,5-b][1,4]diazepin-2-ylamino)-N-(1-isopropyl-piperidin-4-yl)-3-methoxy-benzamide]
